Some test systems named below: DU-145 prostate; HCT-15 colon; HOP-62 NSCLC; HOP-92 NSCLC; HS 578T breast; M14 melanoma; MCF7 breast; NCI-H226 lung; NCI-H23 lung; NCI/ADR-RES ovarian; OVCAR-3 ovarian; RPMI-8226 leukemia; SF-539 CNS; SK-MEL-2 melanoma; SK-MEL-28 melanoma; SK-OV-3 ovarian; SR leukemia; UACC-257 melanoma.
Experiment in all cases: growth of human tumour cells (NCI), 48 h

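Briefly, cells in 96-well plates were exposed to five compound concentrations for 48 h, and endpoints were estimated by linear interpolation. TGI denotes the concentration required for complete inhibition of growth.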 Bounds are passed on as bounds.

With `CC(C)=CCS(=O)c1ccccc1NC1=CC(=O)CC(C)(C)C1` (stereo not given), the TGI in the assay with DU-145 prostate is above 100 µM; with HCT-15 colon it was 28.7 µM; with HOP-62 NSCLC, 0.855 µM; with HOP-92 NSCLC, above 100 µM; with HS 578T breast it was above 100 µM; in the assay on M14 melanoma, above 100 µM. Moreover, the TGI in the assay with MCF7 breast, with NCI-H226 lung, in the assay with NCI-H23 lung, with NCI/ADR-RES ovarian, in the assay on OVCAR-3 ovarian and in the assay with RPMI-8226 leukemia was above 100 µM throughout. Also, the TGI in the assay with SF-539 CNS, in the assay with SK-MEL-2 melanoma, in the assay on SK-MEL-28 melanoma, with SK-OV-3 ovarian, in the assay on SR leukemia and in the assay on UACC-257 melanoma was above 100 µM each time.
Regarding `CCOC(=O)C(N)CSC(=O)NC` (stereo not given), the TGI was 597 µM in the assay on DU-145 prostate; 312 µM in the assay on HCT-15 colon; 567 µM in the assay with HOP-62 NSCLC; 341 µM in the assay on HOP-92 NSCLC; 782 µM with HS 578T breast; 275 µM with M14 melanoma. The TGI with MCF7 breast was found to be 425 µM; in the assay with NCI-H226 lung, 681 µM; in the assay on NCI-H23 lung, 469 µM; with NCI/ADR-RES ovarian, 362 µM; in the assay on OVCAR-3 ovarian, 290 µM; with RPMI-8226 leukemia it was 214 µM. For the same compound, the TGI with SF-539 CNS was 231 µM; with SK-MEL-2 melanoma it was 276 µM; in the assay on SK-MEL-28 melanoma, 440 µM; in the assay on SK-OV-3 ovarian, 621 µM; with SR leukemia, 158 µM; with UACC-257 melanoma it was 535 µM.
For the compound `COc1ccc(CCNC2=CC(=O)c3ncccc3C2=O)cc1OC`, the TGI in the assay on DU-145 prostate amounted to 3.57 µM; in the assay with HCT-15 colon it was 5.09 µM; with HOP-62 NSCLC, 7.9 µM; with HOP-92 NSCLC, 35.8 µM; in the assay with HS 578T breast it was 5.32 µM; in the assay on M14 melanoma, 2.69 µM. The TGI was 3.01 µM in the assay with MCF7 breast; 3.19 µM in the assay on NCI-H226 lung; 2.58 µM in the assay on NCI-H23 lung; 9.32 µM in the assay with NCI/ADR-RES ovarian; 5.12 µM with OVCAR-3 ovarian; above 43 µM in the assay with RPMI-8226 leukemia. The TGI with SF-539 CNS is 4.73 µM; in the assay with SK-MEL-2 melanoma it was 6.73 µM; with SK-MEL-28 melanoma it was 2.69 µM; in the assay on SK-OV-3 ovarian it was 24.4 µM; in the assay with SR leukemia, above 79.8 µM; with UACC-257 melanoma it was 3.19 µM.
Turning to `CSC1=C(SC)SC(=C2SC3=C(SC(=C4SCCS4)S3)S2)S1`, the TGI in the assay on DU-145 prostate, in the assay with HCT-15 colon, with HOP-62 NSCLC, in the assay with HOP-92 NSCLC, with HS 578T breast and in the assay on M14 melanoma was above 100 µM each time. The TGI with MCF7 breast, in the assay on NCI-H226 lung, in the assay with NCI-H23 lung, with NCI/ADR-RES ovarian, with OVCAR-3 ovarian and in the assay on RPMI-8226 leukemia was above 100 µM each time. In addition, the TGI with SF-539 CNS, with SK-MEL-2 melanoma, with SK-MEL-28 melanoma, in the assay with SK-OV-3 ovarian, in the assay on SR leukemia and in the assay on UACC-257 melanoma was above 100 µM in each case.
For the compound `O=C(C(=O)N1CCc2ccccc21)c1c[nH]c2ccccc12`, the TGI with DU-145 prostate, in the assay on HCT-15 colon, in the assay on HOP-62 NSCLC, with HOP-92 NSCLC, with HS 578T breast and with M14 melanoma was above 10 µM each time. Moreover, the TGI in the assay with MCF7 breast, with NCI-H226 lung, with NCI-H23 lung, in the assay on NCI/ADR-RES ovarian, in the assay with OVCAR-3 ovarian and in the assay on RPMI-8226 leukemia was above 10 µM in each case. In addition, the TGI with SF-539 CNS, in the assay on SK-MEL-2 melanoma, in the assay with SK-MEL-28 melanoma, in the assay on SK-OV-3 ovarian, in the assay with SR leukemia and in the assay with UACC-257 melanoma was above 10 µM throughout.
`CCOC(=O)C1=C(Nc2cccc(OC)c2)OCC1=O`: the TGI with DU-145 prostate, in the assay on HCT-15 colon, in the assay with HOP-62 NSCLC, with HOP-92 NSCLC, with HS 578T breast and in the assay with M14 melanoma was above 100 µM in each case. In addition, the TGI in the assay with MCF7 breast, in the assay with NCI-H226 lung, in the assay with NCI-H23 lung, in the assay on NCI/ADR-RES ovarian, in the assay on RPMI-8226 leukemia and in the assay with SF-539 CNS was above 100 µM throughout. Moreover, the TGI in the assay on SK-MEL-2 melanoma, in the assay on SK-MEL-28 melanoma, in the assay on SK-OV-3 ovarian, in the assay with SR leukemia and in the assay with UACC-257 melanoma was above 100 µM each time.
For the compound `CC1(C#N)CC(C)(C)C(/C=C2/CC(C)(C)C(/C=C3/OC(=N)CC3(C)C)=N2)=N1` (stereo not given), the TGI with DU-145 prostate is above 100 µM; with HCT-15 colon, 44.1 µM; in the assay with HOP-62 NSCLC, 56.6 µM; in the assay with HOP-92 NSCLC, 39.9 µM; in the assay on HS 578T breast, 58.9 µM; in the assay on M14 melanoma it was 85.8 µM. Further, the TGI was 26.3 µM in the assay with MCF7 breast; above 100 µM in the assay on NCI-H226 lung; 60.6 µM in the assay on NCI-H23 lung; 54 µM in the assay on NCI/ADR-RES ovarian; 45.8 µM in the assay with OVCAR-3 ovarian; 64 µM with RPMI-8226 leukemia. Moreover, the TGI is above 100 µM in the assay on SF-539 CNS; above 100 µM with SK-MEL-2 melanoma; above 100 µM with SK-MEL-28 melanoma; 61 µM in the assay with SK-OV-3 ovarian; above 100 µM in the assay with SR leukemia; 48.7 µM with UACC-257 melanoma.
